Laboratory results published in patent US20260035345A1 (Lento Bio, Inc., priority 2023, published 2026).
Values after ≈ are worked out from the molar mass of the structure shown. Where two headings read alike, the source gives them in different places. Non-standard residues stand in square brackets, D forms with d. Residues, ends and D or L forms follow the SMILES beside them. Aib = CC(C)(N)C(=O)O

Columns and labels:
[1] = test system: ocular lenses from 8-month-old C57BL/6 mice; experiment: Ex vivo lens stiffness screen, single-point variant of the coverslip method; design: species or system mouse; conditions: 20 mM; for Avg. % Compress.: lenses incubated 12 hours at 37° C., 588.0 mg coverslip weight
Protocol: An ex vivo screen was conducted to evaluate the effect of multiple compounds on lens stiffness using a more efficient variant of the coverslip method (Cheng, et al., J. Vis. Exp., 111: 53986 (2016). Our variant uses a single measurement point to enable multidrug screening, utilizing a weight deemed optimal based on coverslip quantity-response curves. Previously dissected and frozen eyes from 8-month-old C57BL/6 mice were thawed, and the ocular lenses were removed via micro-dissection. Next, intact ocular lenses were immersed and incubated in test compound solutions at various concentrations for 12 hours at 37° C. Individual washed lenses were placed into a divot in a solution-filled plexiglass measurement chamber, where uncompressed axial diameter was assessed. Then 3 glass coverslips glued together, with a total weight of 588.0 mg, were placed on top of the lens, and the axial diameter was remeasured. Change in lens stiffness was calculated as the ratio between the axial diameter of compressed lens to the axial diameter of the unweighted lens (compressed/uncompressed), with higher ratios indicative of more flexibility. To address an important limitation with ex vivo lens treatment (that lens stiffness increases over time, by default, when the lens is removed from the eye post-mortem), we compared treatment with NAC to freshly dissected 8-month lenses and observed natural stiffening occurred during the 12-hour incubation period (10.34% mean compression, n=10).

[2] = Maximum soluble concentration in artificial tears; format: physicochemical; conditions: saline or isotonic
[3] = test system: Two-month-old C57BL/6 mice; experiment: Toxicology and dosing optimization in mice, 1 week of eyedrops (Example 5); format: in vivo, mouse
Protocol: A study was conducted to assess the maximum tolerable dose of N-(2-fluoro-2-methyl-1-propylcarbonyl)-cysteine (and its S-acetylated counterpart, N-(2-fluoro-2-methyl-1-propylcarbonyl)-S-acetylcysteine for lens stiffness reduction and to assess via histology whether any safety issues arose from 1 week of treatment with these compounds, particularly in the lens and cornea.
Two-month-old C57BL/6 mice were treated 2×/day with treatment compounds (see sample groups (n=5) and concentrations below). Animals were assessed for itching and scratching/blinking after dosing, hyperemia, lid swelling, discharge, and squinting, all on a scale of 1-4. Those scoring were blinded to treatment groups. Following euthanasia eyes were fixed and stained with H+E, and corneal and lens anatomy in the two highest concentration groups considered tolerable were assessed.

[4] = test system: lens stiffness in 7-month-old C57BL/6 mice; experiment: In vivo efficacy: lens stiffness after eyedrop treatment (Example 4); design: species or system mouse; conditions: for average total compression: eyedrops, 28-day treatment, fluoro compound 200 mM, LACE 1.5% (PBS vehicle); for lens stiffness versus vehicle treated mice: fluoro compound 200 mM (also versus LACE), LACE 1.5%
Protocol: Rationale and goal: To determine the effect of N-acetylcysteine (NAC) and its variants on reducing lenses stiffness in vivo.
The following sample groups were tested in 7-month-old C57BL/6 mice: vehicle (artificial tears)(40 mice), N-acetylcysteine 20 mM (20 mice), N-(2-fluoro-2-methyl-1-propylcarbonyl)-cysteine 200 mM (10 mice), LACE (lipoic acid choline ester) 1.5% (PBS vehicle) (10 mice), 2-month-old mice (untreated) (7 mice).
Vehicle-treated mice averaged 199.34 micrometers total compression (std. dev 32.16). […] Mice treated with LACE averaged 209.68 micrometers total compression (std. dev 28.16).

[5] = test system: Eight-month-old C57BL/6 mice; experiment: One-month eyedrop tolerability and histology in the aqueous humor study; format: in vivo; conditions: 100 mM eyedrops 2×/day for 1 month
Protocol: (§1) Eight-month-old C57BL/6 mice were given […] eyedrops of 100 mM N-(2-fluoro-2-methyl-1-propylcarbonyl)-cysteine, 100 mM N-pivaloylcysteine, or 100 mM NAC for 1 month at 2×/day. 10 mice were present in each group. […] Safety via histology was positive.

[6] = Aqueous humor LC/MS concentration comparison (corneal penetration); format: in vivo, mouse; conditions: 100 mM eyedrops 2×/day for 1 month; for concentration at 1 h: C57BL/6, mouse, aqueous humor, topical
Protocol: A study was conducted to assess the degree to which N-(2-fluoro-2-methyl-1-propylcarbonyl)-cysteine penetrated the mouse cornea, as compared to NAC and N-pivaloylcysteine.
as §1
On the final day aqueous humor was drawn from the eyes (average of 1-5 μL extracted) 1 hour after final dose, and the concentration of each compound quantified via LC/MS (column: Atlantis T3, 100×2.1 mm, 5 μm; mobile phases: A: Water/Formic Acid (1000/5, v/v), B: Acetonitrile/Methanol/Formic Acid (50/50/0.3, v/v/v).

[7] = test system: lens stiffness in 7-month-old C57BL/6 mice; experiment: Initial in vivo lens stiffness test with NAC eyedrops for one month; design: species or system mouse
Protocol: An initial in vivo test was conducted on NAC utilizing 7-month-old C57BL/6 mice subsequently treated for one month 2×/day with both 100 mM and 20 mM NAC eyedrops (artificial tears was used as the vehicle). During the last day, animals were sacrificed, eyes enucleated, and lenses were removed. Lens stiffness was measured by the same assay as ex vivo, with measurements taken within 5-10 minutes of lens removal. Both a 588 mg and 1047 mg weight were used in the assay.

[8] = test system: ocular lenses from 8-month-old C57BL/6 mice; experiment: Ex vivo lens stiffness screen, single-point variant of the coverslip method; design: species or system mouse; conditions: 1-hour of incubation with NAC
[9] = test system: aged mouse lenses; conditions: background statement; cited from earlier work
[10] = listed as N-(2-fluoro-2-methyl-1-oxopropyl)-cysteine
[11] = drawn 1 hour after final dose, LC/MS

Question: For `CCC(C)(C)C(=O)N[C@@H](CS)C(=O)O`, which “Avg. % Compress.” value [1] is on record?
Answer: 6.29%

Question: With `CC(=O)SCC(NC(=O)C(C)(C)F)C(=O)O` (stereo not drawn) as the molecule, how does the solubility ([2]; artificial tears, read-out: maximum soluble concentration in artificial tears) read?
Answer: 300 mM (≈ 75.4 mg/mL)

Question: With `CC(C)(F)C(=O)N[C@@H](CS)C(=O)O` [listing 1 of 2 here] as the molecule, how does the “improvement over NAC in ex vivo lens stiffness” value [1, 10] read?
Answer: significant improvement

Question: What about the “rank of improvement among tested derivatives, ex vivo lens stiffness” value [1, 10] of the same molecule?
Answer: highest mean significance as well as the highest significance vs vehicle

Question: Which results are given for `CC(C)(F)C(=O)N[C@@H](CS)C(=O)O` [listing 2 of 2 here]?
Answer: tolerability ([3]; 200 mM, 2×/day for 1 week): tolerable; Histology of treated lenses ([3]; mouse, in vivo): entirely normal; improvement over NAC in vivo ([4]; 200 mM vs N-acetylcysteine 20 mM): significant improvement; lens stiffness lost to aging from 2-8 months restored ([4]; 200 mM, relative to 2-month-old untreated mice and 8-month vehicle): 67.9%; average total compression [4]: 281.05 micrometers; lens stiffness versus vehicle treated mice [4]: significantly reduced; solubility [2]: 200 mM (≈ 41.8 mg/mL); Safety via histology [5]: positive; increase of tolerability issues including blinking or hyperemia over time [5]: No noticeable increase; aqueous humor concentration and corneal penetration over NAC and N-pivaloylcysteine [6]: improved; concentration at 1 h [6, 11]: 47 µM; rank of improvement among tested derivatives, ex vivo lens stiffness [1]: superior lens stiffness reducing efficacy; Avg. % Compress. [1]: 6.87%

Question: Which “Avg. % Compress.” value [1] does the source give for `COC(C)(C)C(=O)N[C@@H](CS)C(=O)O` here?
Answer: 6.38%

Question: Which “Avg. % Compress.” value [1] does the source give for `CC(C)(C(=O)N[C@@H](CS)C(=O)O)c1ccccc1` here?
Answer: 6.18%

Question: With `CC(C)(N)C(=O)N[C@@H](CS)C(=O)O` (H-[Aib]-Cys-OH) as the molecule, how does the “Avg. % Compress.” value [1] read?
Answer: 5.68%

Question: With `C[N+](C)(C)CCOC(=O)CCCC[C@@H]1CCSS1` [LACE, Lipoic acid choline ester, reference compound] as the molecule, how does the average total compression [4] read?
Answer: 209.68 micrometers

Question: And the “lens stiffness versus vehicle treated mice” value [4]?
Answer: did not significantly improve

Question: Which “Avg. % Compress.” value [1] does the source give for `CC(C)C(=O)N[C@@H](CS)C(=O)O` [N-(isopropylcarbonyl)-cysteine] here?
Answer: 6.71%

Question: For `CCCCCC(=O)N[C@@H](CS)C(=O)O` [N-(n-pentylcarbonyl)-cysteine], which “Avg. % Compress.” value [1] is on record?
Answer: 4.31%

Question: With `CC(=O)N[C@H](CS)C(=O)O` [N-acetyl-D-cysteine] as the molecule, how does the “improvement versus vehicle (lens stiffness)” value ([7]; a later study, conditions not given) read?
Answer: significant improvement versus vehicle but at a reduced power versus NAC

Question: What does the source list for `CC(=O)N[C@@H](CS)C(=O)O` [N-acetyl-cysteine, reference compound]?
Answer: improvement of lens stiffness compared to vehicle [8]: 2.07%; improvement in lens stiffness over vehicle ([7]; 20 mM eyedrops 2×/day for one month): minor and insignificant improvement; improvement in lens stiffness over vehicle ([7]; 100 mM eyedrops 2×/day for one month, 588 mg and 1047 mg weights): significant improvement; aqueous humor concentration [6, 11]: 17 out of 20 samples falling below the limit of detection; Avg. % Compress. [1]: 5.76%; lens stiffness compared to untreated (vehicle) control lenses ([1]; ex vivo screen): significantly improved

Question: Which “Avg. % Compress.” value [1] does the source give for `O=C(Cc1ccccc1)N[C@@H](CS)C(=O)O` [N-benzylcarbonyl-cysteine] here?
Answer: 4.38%

Question: Which “Avg. % Compress.” value [1] does the source give for `O=C(N[C@@H](CS)C(=O)O)C1CC1` [N-cyclopropylcarbonyl-cysteine] here?
Answer: 6.02%

Question: For `CN(C)C(=O)N[C@@H](CS)C(=O)O` [N-dimethylaminocarbonyl-cysteine], which “Avg. % Compress.” value [1] is on record?
Answer: 4.19%

Question: With `O=C(N[C@@H](CS)C(=O)O)c1ccccc1` [N-phenylcarbonyl-cysteine] as the molecule, how does the “Avg. % Compress.” value [1] read?
Answer: 5.98%

Question: For `CC(C)(C)C(=O)N[C@@H](CS)C(=O)O` [N-pivaloylcysteine, N-(2,2-dimethyl-1-oxopropyl)-cysteine], which Safety via histology [5] is on record?
Answer: positive

Question: What about the “increase of tolerability issues including blinking or hyperemia over time” value [5] of the same molecule?
Answer: No noticeable increase

Question: What about the concentration at 1 h [6, 11] of the same molecule?
Answer: 38 µM

Question: What about the “improvement over NAC in ex vivo lens stiffness” value [1] of the same molecule?
Answer: significant improvement

Question: What about the “rank of improvement among tested derivatives, ex vivo lens stiffness” value [1] of the same molecule?
Answer: largest improvement

Question: What about the “Avg. % Compress.” value [1] of the same molecule?
Answer: 6.82%

Question: Which “lens stiffness in ex vivo treated aged mouse lenses” value [9] does the source give for `CC(=O)N[C@@H](CSC(C)=O)C(=O)O` [S,N-diacetylcysteine] here?
Answer: reduces lens stiffness
